According to PMC8300687, “A Fine-Tuned Lipophilicity/Hydrophilicity Ratio Governs Antibacterial Potency and Selectivity of Bifurcated Halogen Bond-Forming NBTIs” (Antibiotics, 2021):
In brackets after ≈: the same amount, converted by molar mass. Where two headings read alike, the source gives them in different places.

What was measured:
[1] = molecular target: T1, E. coli DNA gyrase (Escherichia coli, UniProt P0AES4); assay: Gyrase Supercoiling High Throughput Plate assay, E. coli; type: biochemical; details: for LE DNA Gyrase E. coli: LE = (1.37/HA) × pIC50
T1 construct: purchased Inspiralis (Norwich, UK)
T1 sequence (P0AES4 whole entry): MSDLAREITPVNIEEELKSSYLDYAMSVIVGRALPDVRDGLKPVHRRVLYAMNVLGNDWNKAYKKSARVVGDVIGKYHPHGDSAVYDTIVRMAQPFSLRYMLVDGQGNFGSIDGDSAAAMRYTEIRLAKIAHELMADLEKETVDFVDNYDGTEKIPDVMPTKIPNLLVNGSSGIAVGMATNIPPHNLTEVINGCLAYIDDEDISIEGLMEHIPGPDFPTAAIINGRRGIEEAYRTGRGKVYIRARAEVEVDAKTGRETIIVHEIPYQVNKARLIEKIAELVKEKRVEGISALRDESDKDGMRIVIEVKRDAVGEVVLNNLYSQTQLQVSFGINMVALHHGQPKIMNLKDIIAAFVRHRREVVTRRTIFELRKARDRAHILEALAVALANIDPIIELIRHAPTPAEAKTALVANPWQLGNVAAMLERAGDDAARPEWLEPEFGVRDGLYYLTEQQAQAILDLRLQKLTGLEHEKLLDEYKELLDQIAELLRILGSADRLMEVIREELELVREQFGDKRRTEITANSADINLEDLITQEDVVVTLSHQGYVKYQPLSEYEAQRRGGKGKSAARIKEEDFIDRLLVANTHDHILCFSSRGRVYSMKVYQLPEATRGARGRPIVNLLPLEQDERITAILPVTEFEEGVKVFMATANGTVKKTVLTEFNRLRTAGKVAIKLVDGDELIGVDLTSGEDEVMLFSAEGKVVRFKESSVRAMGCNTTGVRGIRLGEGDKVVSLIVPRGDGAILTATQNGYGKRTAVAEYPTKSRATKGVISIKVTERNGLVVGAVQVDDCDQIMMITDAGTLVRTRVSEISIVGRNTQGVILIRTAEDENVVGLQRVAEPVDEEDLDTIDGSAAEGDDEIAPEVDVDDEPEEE
Procedure: (§1) A Gyrase Supercoiling High Throughput Plate assay kit, purchased from Inspiralis (Norwich. UK) was used to determine IC50 values of compounds on S. aureus and E. coli. […] Biotinylated oligonucleotide in wash buffer was immobilized onto the wells, and the excess oligonucleotide was washed off with wash buffer and ultrapure water. […] The reactions were stopped by adding the TF buffer (50 mM NaOAc (pH 4.7), 50 mM NaCl, and 50 mM MgCl2) to allow the triplex formation (biotin-oligonucleotide-plasmid) for additional 30 min. Afterward, the unbound plasmid was washed off using TF buffer, and the solution of Promega Diamond dye in T10 buffer (10 mM Tris-HCl (pH 8.0), 1 mM EDTA) was added. […] IC50 value represents the mean of two to four independent measurements.

[2] = system: MRSA (QA-11.6); assay: MIC broth microdilution, MRSA QA-11.6; type: cell-based, methicillin-resistant S. aureus; details: Staphylococcus aureus, resistant to cefoxitin, gentamicin, sulfamethoxazole, tetracycline, read-out: MIC MRSA (QA-11.6)
Procedure: (§2) Antimicrobial testing was carried out by the broth microdilution method in 96-well plate format following the Clinical and Laboratory Standards Institute (CLSI) guidelines and European Committee on Antimicrobial Susceptibility Testing (EUCAST) recommendations. Bacterial suspension of specific bacterial strain equivalent to 0.5 McFarland turbidity standard was diluted with cation-adjusted Mueller Hinton broth with TES (Thermo Fisher Diagnostic, Landsmeer, The Netherlands), to obtain a final inoculum of 10^5 CFU/mL. Compounds dissolved in DMSO and inoculum were mixed together and incubated for 18–20 h at 35 °C. Suspensions of Mycobacterium sp. were prepared into a tube of Middelbrook 7H9 broth supplemented with 5% OADC (Thermo Scientific, Trek Diagnostic Systems, West Sussex, UK) and incubated for at least 10 days. After incubation the minimal inhibitory concentration (MIC) values were determined by visual inspection as the lowest dilution of compounds showing no turbidity. Tetracycline was used as a positive control on every assay plate.

[3] = molecular target: T2, S. aureus Topo IV (Staphylococcus aureus, UniProt Q2FYS4); assay: biochemical; details: mean of two to four measurements; read-out: Topoisomerase IV IC50 S. aureus
T2 construct: purchased Inspiralis (Norwich, UK)
T2 sequence (Q2FYS5 whole entry): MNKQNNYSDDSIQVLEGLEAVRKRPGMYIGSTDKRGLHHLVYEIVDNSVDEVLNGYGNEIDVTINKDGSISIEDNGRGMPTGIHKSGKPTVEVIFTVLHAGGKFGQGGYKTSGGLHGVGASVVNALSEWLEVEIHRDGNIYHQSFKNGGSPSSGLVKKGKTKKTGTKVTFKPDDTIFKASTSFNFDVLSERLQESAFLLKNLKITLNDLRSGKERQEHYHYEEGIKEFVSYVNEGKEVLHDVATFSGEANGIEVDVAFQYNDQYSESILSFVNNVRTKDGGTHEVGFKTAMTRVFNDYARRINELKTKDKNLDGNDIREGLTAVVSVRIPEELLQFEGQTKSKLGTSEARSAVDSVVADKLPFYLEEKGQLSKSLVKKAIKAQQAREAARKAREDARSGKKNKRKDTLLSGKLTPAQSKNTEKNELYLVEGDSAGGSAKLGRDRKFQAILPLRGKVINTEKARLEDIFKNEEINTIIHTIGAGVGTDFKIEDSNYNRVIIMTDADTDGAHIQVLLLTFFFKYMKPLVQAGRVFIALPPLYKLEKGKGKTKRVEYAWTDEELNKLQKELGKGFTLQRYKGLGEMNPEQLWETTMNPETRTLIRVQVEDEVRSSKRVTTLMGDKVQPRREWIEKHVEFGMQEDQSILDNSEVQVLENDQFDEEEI
T2 sequence (Q2FYS4 whole entry): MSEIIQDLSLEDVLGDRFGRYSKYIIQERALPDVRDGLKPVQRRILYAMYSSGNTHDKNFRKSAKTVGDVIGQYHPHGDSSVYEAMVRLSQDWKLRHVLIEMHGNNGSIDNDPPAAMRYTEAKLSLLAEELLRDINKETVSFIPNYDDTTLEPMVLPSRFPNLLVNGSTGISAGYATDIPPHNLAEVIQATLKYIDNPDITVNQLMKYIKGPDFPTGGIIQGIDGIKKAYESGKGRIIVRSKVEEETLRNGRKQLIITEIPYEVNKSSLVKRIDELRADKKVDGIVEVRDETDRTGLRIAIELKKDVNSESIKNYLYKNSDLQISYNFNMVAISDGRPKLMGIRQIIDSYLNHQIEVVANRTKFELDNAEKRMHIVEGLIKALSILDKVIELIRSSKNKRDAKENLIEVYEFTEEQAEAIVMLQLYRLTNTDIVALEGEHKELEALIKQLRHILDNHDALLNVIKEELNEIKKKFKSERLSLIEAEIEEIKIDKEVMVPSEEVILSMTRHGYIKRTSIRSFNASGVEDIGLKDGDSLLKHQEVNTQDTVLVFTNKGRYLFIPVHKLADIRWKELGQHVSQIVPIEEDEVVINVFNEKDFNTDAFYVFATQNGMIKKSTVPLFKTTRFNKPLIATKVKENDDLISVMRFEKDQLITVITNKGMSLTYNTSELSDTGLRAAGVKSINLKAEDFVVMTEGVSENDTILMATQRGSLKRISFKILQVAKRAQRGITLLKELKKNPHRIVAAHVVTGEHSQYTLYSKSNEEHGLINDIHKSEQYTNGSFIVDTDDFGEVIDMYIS
Procedure: (§3) A Topo IV Relaxation High Throughput Plate assay kit, purchased from Inspiralis (Norwich. UK) was used to determine IC50 values of compounds on S. aureus and E. coli. […] Biotinylated oligonucleotide in wash buffer was immobilized onto the wells, and the excess oligonucleotide was washed off with wash buffer and ultrapure water. 1.5 U of S. aureus or E. coli […] enzyme was incubated together with 0.75 μg of supercoiled pNO1 plasmid as a substrate in the presence of 3 μL inhibitor solution in 10% DMSO and 0.008% Tween 20 at 37 °C for 30 min in a final reaction volume of 30 μL in dilution buffer (50 mM Tris-HCl (pH 7.5), 1 mM DTT, 1 mM EDTA, 40% (w/v) glycerol for S. aureus and 40 mM HEPES, KOH (pH 7.6), 100 mM potassium glutamate, 1 mM DTT, 1 mM EDTA, and 40% (v/v) glycerol for E. coli). The reactions were stopped by adding the TF buffer (50 mM NaOAc (pH 4.7), 50 mM NaCl, and 50 mM MgCl2) to allow the triplex formation (biotin-oligonucleotide-plasmid) for additional 30 min. Afterward, the unbound plasmid was washed off using TF buffer, and the solution of Promega Diamond dye in T10 buffer (10 mM Tris-HCl (pH 8.0), 1 mM EDTA) was added. […] IC50 value represents the mean of two to four independent measurements.

[4] = molecular target: T3, E. coli Topo IV (Escherichia coli, UniProt P0AFI2); assay: Topo IV Relaxation High Throughput Plate assay, E. coli; type: biochemical; details: for LE Topo IV E. coli: LE = (1.37/HA) × pIC50
T3 construct: purchased Inspiralis (Norwich, UK)
T3 sequence (P0AFI2 whole entry): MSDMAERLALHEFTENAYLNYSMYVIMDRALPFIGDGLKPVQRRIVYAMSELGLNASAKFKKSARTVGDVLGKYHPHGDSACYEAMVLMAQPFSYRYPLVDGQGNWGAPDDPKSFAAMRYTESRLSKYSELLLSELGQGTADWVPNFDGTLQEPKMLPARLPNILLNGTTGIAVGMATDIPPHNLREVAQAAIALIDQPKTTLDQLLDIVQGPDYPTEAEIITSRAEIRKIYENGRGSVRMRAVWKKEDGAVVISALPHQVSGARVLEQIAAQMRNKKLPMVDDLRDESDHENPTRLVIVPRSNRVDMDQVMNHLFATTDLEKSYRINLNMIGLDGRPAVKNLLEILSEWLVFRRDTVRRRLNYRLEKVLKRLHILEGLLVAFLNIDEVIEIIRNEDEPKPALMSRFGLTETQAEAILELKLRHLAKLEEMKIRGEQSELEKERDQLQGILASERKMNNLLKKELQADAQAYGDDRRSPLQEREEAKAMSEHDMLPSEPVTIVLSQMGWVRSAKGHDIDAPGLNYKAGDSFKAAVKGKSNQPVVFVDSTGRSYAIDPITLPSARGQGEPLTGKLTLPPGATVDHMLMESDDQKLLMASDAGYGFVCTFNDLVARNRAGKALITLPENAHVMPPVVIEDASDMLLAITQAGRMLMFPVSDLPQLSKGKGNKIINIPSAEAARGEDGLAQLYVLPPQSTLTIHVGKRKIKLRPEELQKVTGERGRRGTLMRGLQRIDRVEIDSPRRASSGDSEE
T3 sequence (P20083 whole entry, further chain): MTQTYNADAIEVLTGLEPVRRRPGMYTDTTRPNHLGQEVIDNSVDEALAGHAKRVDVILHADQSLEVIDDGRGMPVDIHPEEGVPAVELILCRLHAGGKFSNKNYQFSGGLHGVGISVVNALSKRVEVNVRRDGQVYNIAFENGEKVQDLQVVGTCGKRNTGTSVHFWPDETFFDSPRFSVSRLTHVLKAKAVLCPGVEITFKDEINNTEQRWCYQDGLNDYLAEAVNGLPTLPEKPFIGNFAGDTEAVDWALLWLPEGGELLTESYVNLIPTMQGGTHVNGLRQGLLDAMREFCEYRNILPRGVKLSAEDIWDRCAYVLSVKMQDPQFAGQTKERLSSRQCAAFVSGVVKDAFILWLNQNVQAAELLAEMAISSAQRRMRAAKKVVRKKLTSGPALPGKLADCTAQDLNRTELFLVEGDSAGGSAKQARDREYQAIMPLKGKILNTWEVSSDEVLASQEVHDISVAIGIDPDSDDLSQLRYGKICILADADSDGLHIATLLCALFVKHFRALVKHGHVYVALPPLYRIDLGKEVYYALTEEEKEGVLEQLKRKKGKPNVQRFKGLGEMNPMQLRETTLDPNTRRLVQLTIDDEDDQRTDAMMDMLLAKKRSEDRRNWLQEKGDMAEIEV
Procedure: as §3

[5] = system: E. coli D22; assay: MIC broth microdilution, E. coli D22; type: cell-based; details: Escherichia coli, D22; mutation in the lpxC gene that increases membrane permeability; read-out: MIC E. coli D22
Procedure: as §2

[6] = Equilibrium solubility at pH 6.8; details: for solubility thermodynamic at 24 h: phosphate buffered saline, 37 °C, pH 6.8, aqueous buffer, thermodynamic from solid
Procedure: (§4) Prior to the measurements of solubility and permeability isocratic HPLC methods were developed. […] The individual method parameters for each compound are given in the Supplementary Materials Table S1.
The vials were then placed in a homogenizer (Next Advance Bullet Blender, Troy, NY, USA) for 5 min ad speed setting “2” after which they were kept in a thermostated shaker (Tehtnica HeatMix, Domel, Slovenia) at 37 °C and 1200 RPM for 24 h. […] Twenty µL of these solutions were injected for the HPLC analysis by the described methods (Supplementary Materials Table S1). External standards for calibration were made in a mobile phase with 5% acetonitrile in a range of 30–90 mg/L and injected at 20 µL injection volumes.

[7] = system: E. coli N43 (CGSC# 5583); assay: MIC broth microdilution, E. coli N43; type: cell-based; details: Escherichia coli
Procedure: as §2

[8] = in vitro; details: for Papp at 4 h: PAMPA; for PAMPA permeability classification [low/high]: relative to reference drugs
Procedure: as §4
A 96-well precoated three-layer PAMPA plates (Corning® Gentest™ Pre-coated PAMPA Plate System, Corning, NY, USA) were used according to the manufacturer’s instructions and as described previously with 300 µL of the donor solutions in the bottom compartment and 200 µL of the acceptor solution (pH 7.4 PBS) in the upper compartment at 37 °C and a 4-h incubation time. The initial and end donor solutions were injected at a 5 µL injection volume. The initial donor solutions were also diluted 100-fold and injected at a 100 µL injection volume to serve as external references for the end acceptor solutions which were injected at the same injection volume. The permeability calculations were made with a manufacturer-provided Excel spreadsheet directly from the measured peak areas accounting for the relevant dilutions and injection volumes.

[9] = molecular target: T4, S. aureus DNA gyrase (Staphylococcus aureus, UniProt P20831); assay: biochemical; type: biochemical; details: for LE DNA Gyrase S. aureus: LE = (1.37/HA) × pIC50; for IC50: fluorescence plate supercoiling assay, mean of two to four measurements
T4 construct: purchased Inspiralis (Norwich, UK)
Procedure: as §1

[10] = system: E. coli (QA-11.7); assay: MIC broth microdilution, E. coli QA-11.7; type: cell-based; details: Escherichia coli, 20 h; multi-resistant isolate (ampicillin, azithromycin, cefotaxime, ertapenem, imipenem and others); read-out: MIC E. coli (QA-11.7)
Procedure: as §2

[11] = system: C. jejuni RDK 135 (ATCC 33560); assay: MIC broth microdilution, C. jejuni; type: cell-based; details: Campylobacter jejuni, ATCC33560; read-out: MIC C. jejuni RDK 135 (ATCC 33560)
Procedure: as §2

[12] = system: M. smegmatis; assay: MIC, M. smegmatis; type: cell-based, Mycobacterium smegmatis; details: Mycolicibacterium smegmatis; read-out: MIC M. smegmatis
Procedure: as §2

[13] = read-out: E. coli N43 MIC in molar
[14] = read-out: MIC E. coli N43 (CGSC# 5583)

| SMILES | IC50 [1] [µM] | LE DNA Gyrase E. coli [1] | MIC [2] [µg/mL] | IC50 [3] [µM] | IC50 [4] [µM] | LE Topo IV E. coli [4] | MIC [5] [µg/mL] | solubility thermodynamic at 24 h [6] [µg/mL] | MIC [7, 13] [µM] | MIC [7, 14] [µg/mL] | Papp at 4 h [8] [×10⁻⁶ cm/s] | Papp at 4 h ([8]; pH 7.4) [×10⁻⁶ cm/s] | LE DNA Gyrase S. aureus [9] | MIC [10] [µg/mL] | MIC [11] [µg/mL] | MIC [12] [µg/mL] | solubility at pH 6.8 in words ([6]; pH 6.8, single-dose in 500 mL) | PAMPA permeability classification [low/high] [8] | IC50 [9] [µM] |
| --- | --- | --- | --- | --- | --- | --- | --- | --- | --- | --- | --- | --- | --- | --- | --- | --- | --- | --- | --- |
| COc1ccc2nccc(CCN3CCC(NCc4ccc(F)cc4)CC3)c2n1 [Compound 12] | 17 ± 1.69 | 0.23 | 4 (≈ 10.1 µM) | > 100 | 0.28 ± 0.03 | 0.31 | 16 (≈ 40.6 µM) | 460 (≈ 1170 µM) | 10.1 | 4 | > 2.7 | 12.1 | 0.30 | 8 (≈ 20.3 µM) | 1 (≈ 2.53 µM) | 2 (≈ 5.07 µM) |  |  |  |
| COc1ccc2nccc(CCN3CCC(NCc4ccc(CO)cc4)CC3)c2n1 [Compound 16] | 56.6 ± 3.32 | 0.19 | 4 (≈ 9.84 µM) | > 100 | 1.21 ± 0.05 | 0.27 | 16 (≈ 39.4 µM) | 3390 (≈ 8330 µM) | 39.4 | 16 |  | 1.5 | 0.24 | 32 (≈ 78.7 µM) | 32 (≈ 78.7 µM) | 32 (≈ 78.7 µM) | soluble at this pH in any conceivable single-dose | int erm ediat e | 4.39 ± 0.55 |
| COc1ccc2nccc(CCN3CCC(NCc4ccc(C(N)=O)cc4)CC3)c2n1 [Compound 17] | > 100 |  | 4 (≈ 9.53 µM) | > 100 | 1.15 ± 0.03 | 0.26 | 128 (≈ 305 µM) | 560 (≈ 1330 µM) | 38.1 | 16 |  | 0.31 | 0.25 | 128 (≈ 305 µM) | 128 (≈ 305 µM) | 16 (≈ 38.1 µM) |  | low | 1.82 ± 0.11 |
| COc1ccc2nccc(CCN3CCC(NCc4ccc(N(C)C)cc4)CC3)c2n1 [Compound 18] | 11.9 ± 0.83 | 0.22 | 0.25 (≈ 0.596 µM) | > 100 | > 100 |  | 8 (≈ 19.1 µM) | 537 (≈ 1280 µM) | 2.45 | 1 | > 2.7 | 16.7 | 0.32 | 4 (≈ 9.53 µM) | 4 (≈ 9.53 µM) | 4 (≈ 9.53 µM) |  |  |  |
